Results taken from PubChem BioAssay AID1963826 (Molecular Pharmacology Branch, DTP, NCI, 2024).
pIC50: −log10 of the molar value.

Tested on: 926638-142-R-J1-PDC complex spheroid viability
Assay: Anticancer human tumor 926638-142-R-J1-PDC patient-derived endometrial carcinoma cell line growth inhibition [POLQ]
Conditions: for pIC50: curve of first compound; for viability, T/C: stronger effect = lower value
Summary of the method: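 Patient-derived tumour cells were co-cultured with HUVEC and mesenchymal stem cells as multicellular spheroids at 37 °C. They were treated with POLQ inhibitors (novobiocin, ART-558, RP6685) alone or combined with other agents. Top concentrations were at or near clinical Cmax (otherwise 10 microM; SN-38 at 1 microM), decreasing in half-log steps.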

[1] = second compound 0.0316 µM, first compound 0.0316 µM
[2] = second compound 0.0316 µM, first compound 0.1 µM
[3] = second compound 0.0316 µM, first compound 0.316 µM
[4] = second compound 0.0316 µM, first compound 1 µM
[5] = second compound 0.0316 µM, first compound 3.16 µM
[6] = second compound 0.0316 µM, first compound 10 µM
[7] = second compound 0.1 µM, first compound 0.0316 µM
[8] = second compound 0.1 µM, first compound 0.1 µM
[9] = second compound 0.1 µM, first compound 0.316 µM
[10] = second compound 0.1 µM, first compound 1 µM
[11] = second compound 0.1 µM, first compound 3.16 µM
[12] = second compound 0.1 µM, first compound 10 µM
[13] = second compound 0.316 µM, first compound 0.0316 µM
[14] = second compound 0.316 µM, first compound 0.1 µM
[15] = second compound 0.316 µM, first compound 0.316 µM
[16] = second compound 0.316 µM, first compound 1 µM
[17] = second compound 0.316 µM, first compound 3.16 µM
[18] = second compound 0.316 µM, first compound 10 µM
[19] = second compound 1 µM, first compound 0.0316 µM
[20] = second compound 1 µM, first compound 0.1 µM
[21] = second compound 1 µM, first compound 0.316 µM
[22] = second compound 1 µM, first compound 1 µM
[23] = second compound 1 µM, first compound 3.16 µM
[24] = second compound 1 µM, first compound 10 µM
[25] = second compound 3.16 µM, first compound 0.0316 µM
[26] = second compound 3.16 µM, first compound 0.1 µM
[27] = second compound 3.16 µM, first compound 0.316 µM
[28] = second compound 3.16 µM, first compound 1 µM
[29] = second compound 3.16 µM, first compound 3.16 µM
[30] = second compound 3.16 µM, first compound 10 µM
[31] = second compound 10 µM, first compound 0.0316 µM
[32] = second compound 10 µM, first compound 0.1 µM
[33] = second compound 10 µM, first compound 0.316 µM
[34] = second compound 10 µM, first compound 1 µM
[35] = second compound 10 µM, first compound 3.16 µM
[36] = second compound 10 µM, first compound 10 µM
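Also: spheroids exposed to drugs for one week before readout.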
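For viability, T/C in this document: percent viability relative to DMSO vehicle control wells set as 100%.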

COc1cc(C2c3cc4c(cc3C(OC3OC5COC(C)OC5C(O)C3O)C3COC(=O)C23)OCO4)cc(OC)c1O (stereo not drawn) + Cc1cccc(N(C)C(=O)C2C(O)CCN2c2nc(C)cc(C(F)(F)F)c2C#N)c1
pIC50 (second compound 0.0316 µM): < 5.00 | pIC50 (second compound 0.1 µM): < 5.00 | pIC50 (second compound 0.316 µM): < 5.00 | pIC50 (second compound 1 µM): < 5.00 | pIC50 (second compound 3.16 µM): < 5.00 | pIC50 (second compound 10 µM): < 5.00 | viability, T/C [1]: 83.5% | viability, T/C [2]: 62.5% | viability, T/C [3]: 72% | viability, T/C [4]: 73% | viability, T/C [5]: 56% | viability, T/C [6]: 60.1% | viability, T/C [7]: 76.8% | viability, T/C [8]: 71.4% | viability, T/C [9]: 72.3% | viability, T/C [10]: 62.7% | viability, T/C [11]: 67.7% | viability, T/C [12]: 56% | viability, T/C [13]: 95.5% | viability, T/C [14]: 84.1% | viability, T/C [15]: 77% | viability, T/C [16]: 57.6% | viability, T/C [17]: 63.9% | viability, T/C [18]: 49.1% | viability, T/C [19]: 89.3% | viability, T/C [20]: 80.8% | viability, T/C [21]: 72.2% | viability, T/C [22]: 77.9% | viability, T/C [23]: 67.8% | viability, T/C [24]: 61.3% | viability, T/C [25]: 75.8% | viability, T/C [26]: 71.8% | viability, T/C [27]: 69.9% | viability, T/C [28]: 79.3% | viability, T/C [29]: 62.7% | viability, T/C [30]: 50.2% | viability, T/C [31]: 80.1% | viability, T/C [32]: 83.9% | viability, T/C [33]: 73.6% | viability, T/C [34]: 70.9% | viability, T/C [35]: 59% | viability, T/C [36]: 60.6%

Nc1ccn(C2OC(CO)C(O)C2(F)F)c(=O)n1 (stereo not drawn) + Cc1cccc(N(C)C(=O)C2C(O)CCN2c2nc(C)cc(C(F)(F)F)c2C#N)c1
pIC50 (second compound 0.0316 µM): 5.89 | pIC50 (second compound 0.1 µM): 5.76 | pIC50 (second compound 0.316 µM): 6.07 | pIC50 (second compound 1 µM): 6.20 | pIC50 (second compound 3.16 µM): 6.09 | pIC50 (second compound 10 µM): 6.27 | viability, T/C [1]: 88.1% | viability, T/C [2]: 66.7% | viability, T/C [3]: 54.9% | viability, T/C [4]: 62.1% | viability, T/C [5]: 44.8% | viability, T/C [6]: 20.9% | viability, T/C [7]: 81.3% | viability, T/C [8]: 68.9% | viability, T/C [9]: 57.9% | viability, T/C [10]: 62.2% | viability, T/C [11]: 46% | viability, T/C [12]: 22.8% | viability, T/C [13]: 97.1% | viability, T/C [14]: 64.6% | viability, T/C [15]: 60.8% | viability, T/C [16]: 51.4% | viability, T/C [17]: 43.7% | viability, T/C [18]: 26.2% | viability, T/C [19]: 80.8% | viability, T/C [20]: 62.1% | viability, T/C [21]: 53.8% | viability, T/C [22]: 46.5% | viability, T/C [23]: 44.2% | viability, T/C [24]: 22.4% | viability, T/C [25]: 89.4% | viability, T/C [26]: 63.6% | viability, T/C [27]: 48.5% | viability, T/C [28]: 60.4% | viability, T/C [29]: 45.1% | viability, T/C [30]: 28% | viability, T/C [31]: 85.1% | viability, T/C [32]: 70.5% | viability, T/C [33]: 52% | viability, T/C [34]: 44.5% | viability, T/C [35]: 41.4% | viability, T/C [36]: 32.5%

O=C(c1cc(Cc2n[nH]c(=O)c3ccccc23)ccc1F)N1CCN(C(=O)C2CC2)CC1 + Cc1cccc(N(C)C(=O)C2C(O)CCN2c2nc(C)cc(C(F)(F)F)c2C#N)c1
pIC50 (second compound 0.0316 µM): < 5.00 | pIC50 (second compound 0.1 µM): < 5.00 | pIC50 (second compound 0.316 µM): < 5.00 | pIC50 (second compound 1 µM): < 5.00 | pIC50 (second compound 3.16 µM): < 5.00 | pIC50 (second compound 10 µM): < 5.00 | viability, T/C [1]: 102% | viability, T/C [2]: 93% | viability, T/C [3]: 92.1% | viability, T/C [4]: 87.2% | viability, T/C [5]: 74.5% | viability, T/C [6]: 79.1% | viability, T/C [7]: 114% | viability, T/C [8]: 87.8% | viability, T/C [9]: 92.4% | viability, T/C [10]: 88.3% | viability, T/C [11]: 77.6% | viability, T/C [12]: 79.1% | viability, T/C [13]: 101% | viability, T/C [14]: 91.6% | viability, T/C [15]: 82.9% | viability, T/C [16]: 85.9% | viability, T/C [17]: 85.8% | viability, T/C [18]: 86.5% | viability, T/C [19]: 86.5% | viability, T/C [20]: 83.5% | viability, T/C [21]: 91.5% | viability, T/C [22]: 91.8% | viability, T/C [23]: 67.5% | viability, T/C [24]: 87.2% | viability, T/C [25]: 76.4% | viability, T/C [26]: 98.2% | viability, T/C [27]: 101% | viability, T/C [28]: 79.9% | viability, T/C [29]: 86.3% | viability, T/C [30]: 69.8% | viability, T/C [31]: 72.3% | viability, T/C [32]: 80% | viability, T/C [33]: 78.9% | viability, T/C [34]: 75.7% | viability, T/C [35]: 69.8% | viability, T/C [36]: 71.1%

O=c1[nH]cc(F)c(=O)[nH]1 + Cc1cccc(N(C)C(=O)C2C(O)CCN2c2nc(C)cc(C(F)(F)F)c2C#N)c1
pIC50 (second compound 0.0316 µM): < 5.00 | pIC50 (second compound 0.1 µM): < 5.00 | pIC50 (second compound 0.316 µM): < 5.00 | pIC50 (second compound 1 µM): < 5.00 | pIC50 (second compound 3.16 µM): < 5.00 | pIC50 (second compound 10 µM): < 5.00 | viability, T/C [1]: 106% | viability, T/C [2]: 98.6% | viability, T/C [3]: 96.6% | viability, T/C [4]: 104% | viability, T/C [5]: 89.5% | viability, T/C [6]: 82.2% | viability, T/C [7]: 111% | viability, T/C [8]: 91.2% | viability, T/C [9]: 110% | viability, T/C [10]: 82.1% | viability, T/C [11]: 106% | viability, T/C [12]: 71.4% | viability, T/C [13]: 88.3% | viability, T/C [14]: 80.2% | viability, T/C [15]: 98.8% | viability, T/C [16]: 83.5% | viability, T/C [17]: 88.1% | viability, T/C [18]: 75% | viability, T/C [19]: 81.2% | viability, T/C [20]: 104% | viability, T/C [21]: 88.4% | viability, T/C [22]: 97.5% | viability, T/C [23]: 81.4% | viability, T/C [24]: 81.5% | viability, T/C [25]: 98.7% | viability, T/C [26]: 89.4% | viability, T/C [27]: 82.7% | viability, T/C [28]: 90.9% | viability, T/C [29]: 91% | viability, T/C [30]: 92.8% | viability, T/C [31]: 81.5% | viability, T/C [32]: 98.4% | viability, T/C [33]: 90% | viability, T/C [34]: 95.2% | viability, T/C [35]: 107% | viability, T/C [36]: 80.8%
